# Measurements published in US20040097468A1, “Method of treating osteoporosis and other bone disorders with upfront loading of bisphosphonates, and kits for such treatment” (priority 2002, published 2004).
# Key:
# humans = experiment: Spinal (vertebral) BMD, loading vs standard doses of bisphosphonates over one year; assay type: in vivo, human
# Experimental: FIG. 4. illustrates the effects of standard recommended dose of risedronate (35 mg once a week), vs. loading dose of risedronate (for doses, see the section on oral administration of bisphosphonates) on vertebral BMD.
# This will then be followed up with once weekly administration (i.e., infrequent administration) of a single dose of similar strength, what is currently used on a longer-term basis.
# osteoporotic patients = details: intravenous injections 0.5 or 1.0 mg every 3 months for 3 years; cited from earlier work
smiles,measurement,setting,value
"O=P(O)(O)C(O)(Cc1cccnc1)P(=O)(O)O [risedronate, 1-hydroxy-2-(3-pyridinyl)-ethylidene-1,1-bisphosphonic acid]",Increase in spinal BMD,"humans; risedronate loading dose, 3 months",+1.5%
same,Increase in spinal BMD,"humans; risedronate loading dose, 6 months",+4.0%
same,Increase in spinal BMD,"humans; risedronate loading dose, 12 months",+5.6%
same,Increase in spinal BMD,"humans; risedronate standard dose (35 mg once a week), 3 months",+0.4%
same,Increase in spinal BMD,"humans; risedronate standard dose (35 mg once a week), 6 months",+2.2%
same,Increase in spinal BMD,"humans; risedronate standard dose (35 mg once a week), 12 months",+4.3%
"NCCCC(O)(P(=O)(O)O)P(=O)(O)O [alendronate, 4-amino-1-hydroxybutylidene-1,1-bisphosphonic acid monosodium trihydrate]",Increase in spinal BMD,"humans; alendronate loading dose, 3 months",+1.2%
same,Increase in spinal BMD,"humans; alendronate loading dose, 6 months",+3.6%
same,Increase in spinal BMD,"humans; alendronate loading dose, 12 months",+5.8%
same,Increase in spinal BMD,"humans; alendronate standard dose (70 mg once a week), 3 months",+0.4%
same,Increase in spinal BMD,"humans; alendronate standard dose (70 mg once a week), 6 months",+1.1%
same,Increase in spinal BMD,"humans; alendronate standard dose (70 mg once a week), 12 months",+4.5%
"CCCCCN(C)CCC(O)(P(=O)(O)O)P(=O)(O)O [ibandronate, 1-hydroxy-3-(N-methyl-N-pentylamino)propylidene-1,1-bisphosphonic acid]",Change in BMD,osteoporotic patients,moderate increase in BMD
same,Change in incidence of new osteoporotic fractures,osteoporotic patients,"small, but not significant, decrease"
